Data taken from patent US20250127835A1, “COMPOSITION BASED ON PLANT EXTRACTS AND USE THEREOF FOR THE PREVENTION AND/OR TREATMENT OF CARBOHYDRATE AND LIPID DYSMETABOLISM” (ESSERRE PHARMA SRL, priority 2021, published 2025).
Counter-ions that a name gives are not always drawn.

Tests used:
[1] = test system: adult individuals with moderate hypercholesterolaemia; experiment: 6-arm, double-blind, placebo-controlled pilot clinical study, 12 weeks; format: in vivo, humans
Experimental: All the enrolled subjects were subjected, 14 days prior to enrolment (T-14), to a pre-enrolment visit with blood tests to assess meeting the inclusion criteria. The individuals who at TO met the inclusion criteria underwent a randomization visit at which the respective treatment was assigned and blood tests were performed in relation to the reference parameters. The study lasted 12 weeks. At the end of treatment (T12), the subjects were subjected to an end-of-study visit and blood tests. The parameters investigated in the study are: Body mass index, systolic and diastolic blood pressure, blood glucose, total cholesterol, LDL, HDL, triglycerides, GOT, GPT, gGT, creatinine phosphokinase (CPK). […] The treatment called “placebo” consists of a tablet equal in shape, weight, colour size and flavour to the active tablet but containing “inert” material for the desired effect and consists of: microcrystalline cellulose, magnesium stearate, silicon dioxide, calcium phosphate, chlorophylline dye, yellow iron oxide dye, yellow coating agents. The treatments related to groups C, D, E and F consist of one tablet equal in appearance to the tablets of groups A and B but consisting of the single active ingredient, as described above in addition to excipients. The treatment tablets were packaged in anonymous white bottles, showing only the batch number consisting of an alphanumeric code and the expiration date. Neither the investigator nor the study subjects knew the contents of the bottles. The bottles of each treatment were placed in cardboard boxes containing a letter in a sealed envelope with reference to the batch number and content, to be opened only in case of need, as in cases of serious adverse events. After randomization, each study participant was given the vial with 30 tablets for the specific treatment of the group to which they belonged. All the subjects were instructed to take one tablet in the evening before bed for 12 weeks.

hyperglycaemic subjects = conditions: 300 mg daily dose; cited from earlier work
[2] = test system: streptozocin-induced diabetic rats; conditions: 6 mg/kg for 5 weeks; cited from earlier work
[3] = test system: 86 subjects of which 60 with type II diabetes mellitus; conditions: 100 mg per day, after 3 months of supplementation; cited from earlier work
[4] = after 12 weeks, printed as reduction of x% or as −x%

In the case of Cc1ncc(C[n+]2csc(CCO)c2C)c(N)n1 [THIAMINE, thiamine hydrochloride], the “reductions in the parameters of interest” value ([1]; after 12 weeks) is reported as “did not show statistically significant reductions”, the “increase of HDL cholesterol (HDL-C)” value ([1]; after 12 weeks of treatment) is reported as “no changes” and the “reduction of LDL cholesterol (LDL-C)” value ([1]; after 12 weeks of treatment) is reported as “did not achieve a percentage reduction”. For the same molecule, the “reduction of fasting plasma glucose (FPG)” value [1, 4] was “not detected”, the “reduction of triglycerides (TG)” value [1, 4] was −1% and the diastolic pressure (hyperglycaemic subjects) was “reduces”. The systolic pressure (hyperglycaemic subjects) was “reduces”, the HDL-c [2] was “increases” and the insulin [2] was “increases”. The malonyldialdehyde [2] was “reduces”, the serum glucose [2] was “reduces” and the total cholesterol [2] was “reduces”. The triglycerides [2] was “reduces” and the total cholesterol [3] was “significantly reduces”.
